# Data as given in patent publication US20260062412A1, “NITROGEN-CONTAINING HETEROCYCLIC COMPOUND HAVING MYT1 INHIBITORY ACTIVITY” (CHUGAI SEIYAKU KABUSHIKI KAISHA, priority 2023, published 2026).
# pIC50: −log10 of the molar value.
# Biological target: MYT1 protein (Homo sapiens (Human), UniProt Q99640)
# Test: Test for binding to ATP binding site of MYT1 (Kinase Tracer 178 / Eu-Anti-GST antibody TR-FRET)
# Settings: ATP binding site of MYT1, 30 minutes at room temperature
# Procedure: The binding capacity of each compound to the ATP binding site of MYT1 Kinase protein was evaluated. 5× Kinase Buffer A (manufactured by Thermo Fisher Scientific Inc., PV3189) was diluted to 5 times with Milli-Q water, thereby preparing 1× Kinase Buffer. Using 1× Kinase Buffer, MYT1 protein (manufactured by Carna Biosciences, Inc.) was diluted to a concentration of 0.005 μM and Eu-Anti-GST Antibody was diluted to a concentration of 1 μM. […] To a 96 well-plate, 2.5 μL of a compound diluted with DMSO was added. […] The mixture was well mixed and then allowed to stand at room temperature for 30 minutes. Thereafter, fluorescence wavelengths of 665 nm and 615 nm generated by irradiation with excitation light of 340 nm were detected using Envision (manufactured by PerkinElmer). The proportion of Tracer bound to MYT1 protein was calculated for every condition by dividing the intensity at the fluorescence wavelength of 665 nm by the intensity at the fluorescence wavelength of 615 nm.
# Sequence of MYT1 protein (Q99640 whole entry): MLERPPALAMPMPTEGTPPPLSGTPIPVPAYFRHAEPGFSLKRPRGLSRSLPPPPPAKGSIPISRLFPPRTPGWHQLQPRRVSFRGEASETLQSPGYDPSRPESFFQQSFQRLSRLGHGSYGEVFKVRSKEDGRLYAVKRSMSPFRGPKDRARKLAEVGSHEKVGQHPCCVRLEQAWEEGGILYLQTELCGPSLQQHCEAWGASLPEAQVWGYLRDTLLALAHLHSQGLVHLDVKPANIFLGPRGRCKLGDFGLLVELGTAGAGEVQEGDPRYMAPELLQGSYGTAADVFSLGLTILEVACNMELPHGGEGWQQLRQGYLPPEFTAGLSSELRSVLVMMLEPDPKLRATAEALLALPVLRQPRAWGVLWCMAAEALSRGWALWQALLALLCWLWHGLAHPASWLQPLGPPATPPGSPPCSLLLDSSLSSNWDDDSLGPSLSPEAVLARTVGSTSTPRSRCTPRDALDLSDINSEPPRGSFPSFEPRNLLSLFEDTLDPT
row,pIC50,SMILES
1,8.54,"CN1CC(c2cc3c(-c4ccc(F)c5[nH]ncc45)c(N)c(=O)[nH]c3c3ncccc23)C1 [Compound D30, 3-Amino-4-(7-fluoro-1H-indazol-4-yl)-6-(1-methylazetidin-3-yl)-1H-1,10-phenanthrolin-2-one]"
2,7.16,"Nc1c(-c2ccc(F)c3[nH]ncc23)c2cc(N3CCN(CC(F)(F)F)CC3)c3cccnc3c2[nH]c1=O [Compound D15, 3-Amino-4-(7-fluoro-1H-indazol-4-yl)-6-[4-(2,2,2-trifluoroethyl)piperazin-1-yl]-1H-1,10-phenanthrolin-2-one]"
3,8.52,"Nc1c(-c2ccc(F)c3[nH]ncc23)c2cc(Br)c3ccsc3c2[nH]c1=O [Compound L1, 7-Amino-4-bromo-6-(7-fluoro-1H-indazol-4-yl)-9H-thieno[3,2-h]quinolin-8-one]"
4,9.31,"CC[C@H](C)Oc1cc2c(-c3ccc(F)c4[nH]ncc34)c(N)c(=O)[nH]c2c2nccnc12 [Compound G13, 8-Amino-5-[(2S)-butan-2-yl]oxy-7-(7-fluoro-1H-indazol-4-yl)-10H-pyrido[2,3-f]quinoxalin-9-one]"
5,6.43,"Cc1cc2c(nn1)c(Br)cc1c(-c3ccc(F)c4[nH]ncc34)c(N)c(=O)[nH]c12 [Compound S1, 3-Amino-6-bromo-4-(7-fluoro-1H-indazol-4-yl)-9-methyl-1H-pyrido[2,3-f]cinnolin-2-one]"
6,8.19,"CCc1cc2c(-c3ccc(F)c4[nH]ncc34)c(N)c(=O)[nH]c2c2ncccc12 [Compound D5, 3-Amino-6-ethyl-4-(7-fluoro-1H-indazol-4-yl)-1H-1,10-phenanthrolin-2-one]"
7,8.47,"Nc1c(-c2ccc(F)c3[nH]ncc23)c2cnc3ccccc3c2[nH]c1=O [Compound R1, 3-Amino-4-(7-fluoro-1H-indazol-4-yl)-1H-benzo[h][1,6]naphthyridin-2-one]"

# The remaining lines, values behind:
row,SMILES,pIC50
1,"Nc1c(-c2cc(F)c(F)c3[nH]ncc23)c2c(F)cc3ncccc3c2[nH]c1=O [Compound C221, 3-Amino-4-(6,7-difluoro-1H-indazol-4-yl)-5-fluoro-1H-1,7-phenanthrolin-2-one]",9.14
2,"CC1(C)CC(c2cc3c(-c4ccc(F)c5[nH]ncc45)c(N)c(=O)[nH]c3c3cccnc23)C1 [Compound C167, 3-Amino-6-(3,3-dimethylcyclobutyl)-4-(7-fluoro-1H-indazol-4-yl)-1H-1,7-phenanthrolin-2-one]",7.34
3,"Nc1c(-c2ccc(F)c3[nH]ncc23)c2cc(CCC(F)F)c3ncccc3c2[nH]c1=O [Compound C171, 3-Amino-6-(3,3-difluoropropyl)-4-(7-fluoro-1H-indazol-4-yl)-1H-1,7-phenanthrolin-2-one]",8.66
4,"Nc1c(-c2cccc(O)c2)c2cc(Cl)c3ccccc3c2[nH]c1=O [Compound B8, 3-Amino-6-chloro-4-(3-hydroxyphenyl)-1H-benzo[h]quinolin-2-one]",7.92
5,"Nc1c(-c2ccc(Cl)c3[nH]ncc23)c2cc(Br)c3ncccc3c2[nH]c1=O [Compound C73, 3-Amino-6-bromo-4-(7-chloro-1H-indazol-4-yl)-1H-1,7-phenanthrolin-2-one]",> 7.85
6,"Cc1cc2c(-c3ccc(F)c4[nH]ncc34)c(N)c(=O)[nH]c2c2cccc(Cl)c12 [Compound B19, 3-Amino-7-chloro-4-(7-fluoro-1H-indazol-4-yl)-6-methyl-1H-benzo[h]quinolin-2-one]",7.66
7,"Nc1c(-c2ccc(F)c3[nH]ncc23)c2cc(OC[C@H]3CCCO3)c3ncccc3c2[nH]c1=O [Compound C35, 3-Amino-4-(7-fluoro-1H-indazol-4-yl)-6-[[(2R)-oxolan-2-yl]methoxy]-1H-1,7-phenanthrolin-2-one]",8.36
8,"Nc1c(-c2ccc(F)c3[nH]ncc23)c2cc(OCC3(F)CCC3)c3ncccc3c2[nH]c1=O [Compound C56, 3-Amino-6-[(1-fluorocyclobutyl)methoxy]-4-(7-fluoro-1H-indazol-4-yl)-1H-1,7-phenanthrolin-2-one]",8.77
9,"Nc1c(-c2cccc(O)c2)c2cc(-c3ccccc3)c3ccccc3c2[nH]c1=O [Compound B5, 3-Amino-4-(3-hydroxyphenyl)-6-phenyl-1H-benzo[h]quinolin-2-one]",6.38
10,"CC(C)Oc1cc2c(-c3ccc(Cl)c4[nH]ncc34)c(N)c(=O)[nH]c2cc1Cl [Compound A8, 3-Amino-7-chloro-4-(7-chloro-1H-indazol-4-yl)-6-propan-2-yloxy-1H-quinolin-2-one]",7.64
11,"Nc1c(-c2cccc(OC(F)F)c2)c2cc(Cl)ccc2[nH]c1=O [Compound A50, 3-Amino-6-chloro-4-[3-(difluoromethoxy)phenyl]-1H-quinolin-2-one]",5.24
12,"CC[C@H](C)Oc1cc2c(-c3ccc(F)c4[nH]ncc34)c(N)c(=O)[nH]c2c2cccnc12 [Compound C34, 3-Amino-6-[(2S)-butan-2-yl]oxy-4-(7-fluoro-1H-indazol-4-yl)-1H-1,7-phenanthrolin-2-one]",8.43
13,"CC(C)Cc1cc2c(-c3ccc(F)c4[nH]ncc34)c(N)c(=O)[nH]c2c2cccnc12 [Compound C105, 3-Amino-4-(7-fluoro-1H-indazol-4-yl)-6-(2-methylpropyl)-1H-1,7-phenanthrolin-2-one]",8.30
14,"Cc1c(C2CC2)c2ncccc2c2[nH]c(=O)c(N)c(-c3cc(F)c(F)c4[nH]ncc34)c12 [Compound C217, 3-Amino-6-cyclopropyl-4-(6,7-difluoro-1H-indazol-4-yl)-5-methyl-1H-1,7-phenanthrolin-2-one]",8.74
15,"Nc1c(-c2ccc(Cl)c3[nH]ncc23)c2cc(C3CCN(C4CCC4)CC3)ccc2[nH]c1=O [Compound A35, 3-Amino-4-(7-chloro-1H-indazol-4-yl)-6-(1-cyclobutylpiperidin-4-yl)-1H-quinolin-2-one]",7.72
16,"Nc1c(-c2cccc3[nH]ncc23)c2cc(Cl)ccc2[nH]c1=O [Compound A43, 3-Amino-6-chloro-4-(1H-indazol-4-yl)-1H-quinolin-2-one]",7.32
17,"COCCOc1cc2c(-c3ccc(F)c4[nH]ncc34)c(N)c(=O)[nH]c2c2cccnc12 [Compound C14, 3-Amino-4-(7-fluoro-1H-indazol-4-yl)-6-(2-methoxyethoxy)-1H-1,7-phenanthrolin-2-one]",8.60
18,"CS(=O)(=O)Nc1cc2c(-c3ccc(F)c4[nH]ncc34)c(N)c(=O)[nH]c2c2cccnc12 [Compound C127, N-[3-Amino-4-(7-fluoro-1H-indazol-4-yl)-2-oxo-1H-1,7-phenanthrolin-6-yl]methanesulfonamide]",8.82
19,"Nc1c(-c2ccc(F)c3[nH]ncc23)c2cc(C3CC4(C3)CC(F)(F)C4)c3ncccc3c2[nH]c1=O [Compound C166, 3-Amino-6-(2,2-difluorospiro[3,3]heptan-6-yl)-4-(7-fluoro-1H-indazol-4-yl)-1H-1,7-phenanthrolin-2-one]",8.54
20,"N#C[C@H]1C[C@@H](c2cc3c(-c4ccc(F)c5[nH]ncc45)c(N)c(=O)[nH]c3c3cccnc32)C1 [Compound C178, (1s,3s)-3-[3-Amino-4-(7-fluoro-1H-indazol-4-yl)-2-oxo-1H-1,7-phenanthrolin-6-yl]cyclobutane-1-carbonitrile]",8.64
21,"Nc1c(-c2ccc(F)c3[nH]ncc23)c2cc(C3CC3)c3cccc(Cl)c3c2[nH]c1=O [Compound B20, 3-Amino-10-chloro-6-cyclopropyl-4-(7-fluoro-1H-indazol-4-yl)-1H-benzo[h]quinolin-2-one]",7.38
